Assay results from US10597388B2, “Pyridazinone herbicides” (FMC CORPORATION, priority 2014, dated 2020).

How the values were obtained:
Assay in all cases: Test C greenhouse herbicide test, pre- and postemergence
Type in all cases: in vivo
[1] = tested on: barnyardgrass (Echinochloa crus-galli)
How it was run: (§1)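 Visual ratings on a 0 to 100 scale (0 = no effect, 100 = complete control) versus untreated controls, scored 13–15 d after treatment. Soil-applied preemergence to seeded loam/sand; foliar postemergence to 1- to 4-leaf plants (2–18 cm) in peat-vermiculite mix; compounds formulated in solvent plus surfactant.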

[2] = tested on: blackgrass (Alopecurus myosuroides)
How it was run: as §1

corn (Zea mays) = tested on: corn (Zea mays)
How it was run: as §1

[3] = tested on: crabgrass, large (large crabgrass, Digitaria sanguinalis)
How it was run: as §1

[4] = tested on: johnsongrass (Sorghum halepense)
How it was run: as §1

[5] = tested on: lambsquarters (Chenopodium album)
How it was run: as §1

[6] = tested on: morningglory (Ipomoea coccinea)
How it was run: as §1

[7] = tested on: nutsedge, yellow (yellow nutsedge, Cyperus esculentus)
How it was run: as §1

[8] = tested on: pigweed (Amaranthus retroflexus)
How it was run: as §1

[9] = tested on: ragweed (common ragweed, Ambrosia elatior)
How it was run: as §1

[10] = tested on: ryegrass, Italian (Italian ryegrass, Lolium multiflorum)
How it was run: as §1

soybean (Glycine max) = tested on: soybean (Glycine max)
How it was run: as §1

[11] = tested on: velvetleaf (Abutilon theophrasti)
How it was run: as §1

[12] = tested on: waterhemp (common waterhemp, Amaranthus rudis)
How it was run: as §1

[13] = tested on: wheat (winter wheat, Triticum aestivum)
How it was run: as §1

[14] = Postemergence, 31 g ai/ha, scale 0 to 100 (0 no effect, 100 complete control)
[15] = Postemergence, 125 g ai/ha, scale 0 to 100, 0 is no effect, 100 is complete control
[16] = Postemergence, 250 g ai/ha, scale 0 to 100, 0 no effect, 100 complete control, 13 to 15 d
[17] = Preemergence, 31 g ai/ha, scale 0 to 100, 0 is no effect, 100 is complete control
[18] = Preemergence, 62 g ai/ha, scale 0 to 100, 0 is no effect, 100 is complete control
[19] = Preemergence, 125 g ai/ha, scale 0 to 100, 0 is no effect, 100 is complete control
[20] = Preemergence, 250 g ai/ha, scale 0 to 100, 0 no effect, 100 complete control
[21] = postemergence, 62 g ai/ha, scale 0 to 100, 0 no effect, 100 complete control

CCC(=O)Oc1c(C)nn(C)c(=O)c1-c1ccc(F)c2ccccc12 [Compound 113]
Plant response rating, Barnyardgrass [1, 14]: 25
Plant response rating, Barnyardgrass [1, 15]: 35
Plant response rating, Barnyardgrass [1, 16]: 45
Plant response rating, Barnyardgrass [1, 17]: 10
Plant response rating, Barnyardgrass [1, 18]: 35
Plant response rating, Barnyardgrass [1, 19]: 65
Barnyardgrass plant response rating [1, 20]: 95
Barnyardgrass plant response rating [1, 21]: 35
Plant response rating, Blackgrass [2, 14]: 15
Plant response rating, Blackgrass [2, 15]: 45
Plant response rating, Blackgrass [2, 16]: 60
Plant response rating, Blackgrass [2, 17]: 10
Plant response rating, Blackgrass [2, 18]: 50
Plant response rating, Blackgrass [2, 19]: 55
Blackgrass plant response rating [2, 20]: 60
Blackgrass plant response rating [2, 21]: 25
Plant response rating, Corn (corn (Zea mays); [14]): 5
Plant response rating, Corn (corn (Zea mays); [15]): 10
Plant response rating, Corn (corn (Zea mays); [16]): 15
Plant response rating, Corn (corn (Zea mays); [17]): 0
Plant response rating, Corn (corn (Zea mays); [18]): 0
Plant response rating, Corn (corn (Zea mays); [19]): 20
Corn plant response rating (corn (Zea mays); [20]): 35
Corn plant response rating (corn (Zea mays); [21]): 10
Plant response rating, Crabgrass, Large [3, 14]: 5
Plant response rating, Crabgrass, Large [3, 15]: 25
Plant response rating, Crabgrass, Large [3, 16]: 70
Plant response rating, Crabgrass, Large [3, 17]: 0
Plant response rating, Crabgrass, Large [3, 18]: 35
Plant response rating, Crabgrass, Large [3, 19]: 75
Crabgrass, Large plant response rating [3, 20]: 90
Crabgrass, Large plant response rating [3, 21]: 15
Plant response rating, Johnsongrass [4, 14]: 0
Plant response rating, Johnsongrass [4, 15]: 10
Plant response rating, Johnsongrass [4, 16]: 20
Plant response rating, Johnsongrass [4, 17]: 0
Plant response rating, Johnsongrass [4, 18]: 10
Plant response rating, Johnsongrass [4, 19]: 20
Johnsongrass plant response rating [4, 20]: 30
Plant response rating, Lambsquarters [5, 14]: 98
Plant response rating, Lambsquarters [5, 15]: 100
Plant response rating, Lambsquarters [5, 16]: 100
Plant response rating, Lambsquarters [5, 17]: 90
Plant response rating, Lambsquarters [5, 18]: 85
Plant response rating, Lambsquarters [5, 19]: 90
Lambsquarters plant response rating [5, 20]: 100
Plant response rating, Morningglory [6, 14]: 98
Plant response rating, Morningglory [6, 15]: 100
Plant response rating, Morningglory [6, 16]: 100
Plant response rating, Morningglory [6, 17]: 85
Plant response rating, Morningglory [6, 18]: 95
Plant response rating, Morningglory [6, 19]: 98
Morningglory plant response rating [6, 20]: 100
Plant response rating, Nutsedge, Yellow [7, 14]: 70
Plant response rating, Nutsedge, Yellow [7, 15]: 85
Plant response rating, Nutsedge, Yellow [7, 16]: 95
Plant response rating, Nutsedge, Yellow [7, 17]: 55
Plant response rating, Nutsedge, Yellow [7, 18]: 70
Plant response rating, Nutsedge, Yellow [7, 19]: 85
Nutsedge, Yellow plant response rating [7, 20]: 85
Plant response rating, Pigweed [8, 14]: 65
Plant response rating, Pigweed [8, 15]: 95
Plant response rating, Pigweed [8, 16]: 98
Plant response rating, Pigweed [8, 17]: 70
Plant response rating, Pigweed [8, 18]: 75
Plant response rating, Pigweed [8, 19]: 100
Pigweed plant response rating [8, 20]: 100
Plant response rating, Ragweed [9, 14]: 90
Plant response rating, Ragweed [9, 15]: 98
Plant response rating, Ragweed [9, 16]: 100
Plant response rating, Ragweed [9, 17]: 65
Plant response rating, Ragweed [9, 18]: 95
Plant response rating, Ragweed [9, 19]: 85
Ragweed plant response rating [9, 20]: 95
Plant response rating, Ryegrass, Italian [10, 14]: 90
Plant response rating, Ryegrass, Italian [10, 15]: 95
Plant response rating, Ryegrass, Italian [10, 16]: 95
Plant response rating, Ryegrass, Italian [10, 17]: 95
Plant response rating, Ryegrass, Italian [10, 18]: 95
Plant response rating, Ryegrass, Italian [10, 19]: 90
Ryegrass, Italian plant response rating [10, 20]: 95
Plant response rating, Soybean (soybean (Glycine max); [14]): 15
Plant response rating, Soybean (soybean (Glycine max); [15]): 40
Plant response rating, Soybean (soybean (Glycine max); [16]): 55
Plant response rating, Soybean (soybean (Glycine max); [17]): 0
Plant response rating, Soybean (soybean (Glycine max); [18]): 45
Plant response rating, Soybean (soybean (Glycine max); [19]): 65
Soybean plant response rating (soybean (Glycine max); [20]): 80
Plant response rating, Velvetleaf [11, 14]: 70
Plant response rating, Velvetleaf [11, 15]: 90
Plant response rating, Velvetleaf [11, 16]: 98
Plant response rating, Velvetleaf [11, 17]: 60
Plant response rating, Velvetleaf [11, 18]: 95
Plant response rating, Velvetleaf [11, 19]: 98
Velvetleaf plant response rating [11, 20]: 100
Plant response rating, Waterhemp [12, 14]: 85
Plant response rating, Waterhemp [12, 15]: 90
Plant response rating, Waterhemp [12, 16]: 100
Plant response rating, Waterhemp [12, 17]: 85
Plant response rating, Waterhemp [12, 18]: 100
Plant response rating, Waterhemp [12, 19]: 98
Waterhemp plant response rating [12, 20]: 98
Plant response rating, Wheat [13, 14]: 5
Plant response rating, Wheat [13, 15]: 5
Plant response rating, Wheat [13, 16]: 15
Plant response rating, Wheat [13, 17]: 0
Plant response rating, Wheat [13, 18]: 30
Plant response rating, Wheat [13, 19]: 35
Wheat plant response rating [13, 20]: 50

CCC(=O)Oc1c(OC)nn(C)c(=O)c1-c1c(C)sc2ccc(Cl)cc12 [Compound 131]
Plant response rating, Barnyardgrass [1, 17]: 0
Plant response rating, Barnyardgrass [1, 18]: 0
Plant response rating, Barnyardgrass [1, 19]: 10
Barnyardgrass plant response rating [1, 20]: 35
Plant response rating, Blackgrass [2, 17]: 0
Plant response rating, Blackgrass [2, 18]: 40
Plant response rating, Blackgrass [2, 19]: 40
Blackgrass plant response rating [2, 20]: 90
Plant response rating, Corn (corn (Zea mays); [17]): 0
Plant response rating, Corn (corn (Zea mays); [18]): 0
Plant response rating, Corn (corn (Zea mays); [19]): 5
Corn plant response rating (corn (Zea mays); [20]): 15
Plant response rating, Crabgrass, Large [3, 17]: 0
Plant response rating, Crabgrass, Large [3, 18]: 20
Plant response rating, Crabgrass, Large [3, 19]: 60
Crabgrass, Large plant response rating [3, 20]: 80
Plant response rating, Johnsongrass [4, 17]: 0
Plant response rating, Johnsongrass [4, 18]: 0
Plant response rating, Johnsongrass [4, 19]: 0
Johnsongrass plant response rating [4, 20]: 20
Plant response rating, Lambsquarters [5, 17]: 60
Plant response rating, Lambsquarters [5, 18]: 70
Plant response rating, Lambsquarters [5, 19]: 85
Lambsquarters plant response rating [5, 20]: 95
Plant response rating, Morningglory [6, 17]: 35
Plant response rating, Morningglory [6, 18]: 55
Plant response rating, Morningglory [6, 19]: 85
Morningglory plant response rating [6, 20]: 95
Plant response rating, Nutsedge, Yellow [7, 17]: 10
Plant response rating, Nutsedge, Yellow [7, 18]: 35
Plant response rating, Nutsedge, Yellow [7, 19]: 65
Nutsedge, Yellow plant response rating [7, 20]: 75
Plant response rating, Pigweed [8, 17]: 60
Plant response rating, Pigweed [8, 18]: 100
Plant response rating, Pigweed [8, 19]: 100
Pigweed plant response rating [8, 20]: 100
Plant response rating, Ragweed [9, 17]: 65
Plant response rating, Ragweed [9, 18]: 95
Plant response rating, Ragweed [9, 19]: 98
Ragweed plant response rating [9, 20]: 98
Plant response rating, Ryegrass, Italian [10, 17]: 10
Plant response rating, Ryegrass, Italian [10, 18]: 80
Plant response rating, Ryegrass, Italian [10, 19]: 95
Ryegrass, Italian plant response rating [10, 20]: 95
Plant response rating, Soybean (soybean (Glycine max); [17]): 0
Plant response rating, Soybean (soybean (Glycine max); [18]): 0
Plant response rating, Soybean (soybean (Glycine max); [19]): 0
Soybean plant response rating (soybean (Glycine max); [20]): 0
Plant response rating, Velvetleaf [11, 17]: 0
Plant response rating, Velvetleaf [11, 18]: 55
Plant response rating, Velvetleaf [11, 19]: 85
Velvetleaf plant response rating [11, 20]: 95
Plant response rating, Waterhemp [12, 17]: 95
Plant response rating, Waterhemp [12, 18]: 98
Plant response rating, Waterhemp [12, 19]: 98
Waterhemp plant response rating [12, 20]: 100
Plant response rating, Wheat [13, 17]: 0
Plant response rating, Wheat [13, 18]: 0
Plant response rating, Wheat [13, 19]: 20
Wheat plant response rating [13, 20]: 20
